Earlier results as cited in patent publication US12435094B1, “Methods of preparing isomers, analogs, and synthetic derivatives from akuamma seeds” (priority 2024, dated 2025).

Columns and labels:
mu opioid receptor (μOR) = mu opioid receptor (μOR) (Homo sapiens, UniProt P35372); details: background statement, no data shown
[1] = system: animal models of antinociception; details: background statement, no data shown

Sequence of mu opioid receptor (μOR) (P35372 whole entry, species assumed): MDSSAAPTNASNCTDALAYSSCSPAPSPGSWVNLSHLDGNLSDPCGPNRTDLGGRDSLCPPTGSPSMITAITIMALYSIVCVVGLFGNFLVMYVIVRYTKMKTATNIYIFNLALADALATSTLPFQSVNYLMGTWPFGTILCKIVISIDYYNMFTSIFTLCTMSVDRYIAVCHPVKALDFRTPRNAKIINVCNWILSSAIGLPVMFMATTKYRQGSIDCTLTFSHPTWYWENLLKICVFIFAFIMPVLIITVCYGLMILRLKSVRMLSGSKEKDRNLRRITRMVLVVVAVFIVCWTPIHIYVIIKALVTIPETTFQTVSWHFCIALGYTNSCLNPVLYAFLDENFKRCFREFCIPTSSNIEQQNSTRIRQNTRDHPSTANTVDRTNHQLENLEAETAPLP

Which results are given for `C/C=C1/CN2CC[C@@]34c5ccccc5N(C)[C@]35OCC4(C(=O)OC)[C@@H]1C[C@H]25` [pseudoakuammigine, Pseudoakuammigine]?
agonism of the mu opioid receptor (μOR) (mu opioid receptor (μOR)): weak agonists; effects in animal models of antinociception [1]: minimal effects

What does the source list for Akuammine?
agonism of the mu opioid receptor (μOR) (mu opioid receptor (μOR)): weak agonists; effects in animal models of antinociception [1]: minimal effects
